In PubChem BioAssay AID248 (DTP/NCI, 2004):
Where “and” joins values, the source holds several entries; their conditions need not be identical. Equal values may be shown once. Toxic doses and inconclusive results are not listed. Rule as the data show it: active = T/C of 150% or more; inactive = T/C below 125%.

Tested on: L1210 leukemia ip in BDF1 mice, survival T/C
Test: NCI In Vivo Anticancer Drug Screen. Data for tumor model L1210 Leukemia (intraperitoneal) in B6D2F1 (BDF1) mice
Conditions: endpoint: mean survival time, higher = longer survival
Summary of the method: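 Each compound was tested against a transplantable tumor grown in mice. The endpoint was survival, with treated animals benchmarked against vehicle controls as a simple ratio.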

[1] = dose: 100.0 mg/kg/injection, schedule: Q04DX003 (ip), vehicle: Klucel (hydroxypropylcellulose) (HPC)
[2] = dose: 200.0 mg/kg/injection, schedule: Q04DX003 (ip), vehicle: Klucel (hydroxypropylcellulose) (HPC)
[3] = dose: 400.0 mg/kg/injection, schedule: Q04DX003 (ip), vehicle: Klucel (hydroxypropylcellulose) (HPC)
[4] = dose: 75.0 mg/kg/injection, schedule: Q01DX001 (ip), vehicle: saline
[5] = dose: 100.0 mg/kg/injection, schedule: Q01DX009 (ip), vehicle: Klucel (hydroxypropylcellulose) (HPC)
[6] = dose: 200.0 mg/kg/injection, schedule: Q01DX009 (ip), vehicle: Klucel (hydroxypropylcellulose) (HPC)
[7] = dose: 400.0 mg/kg/injection, schedule: Q01DX009 (ip), vehicle: Klucel (hydroxypropylcellulose) (HPC)
[8] = dose: 100.0 mg/kg/injection, schedule: Q01DX001 (ip), vehicle: carboxymethylcellulose (CMC)
[9] = dose: 200.0 mg/kg/injection, schedule: Q01DX001 (ip), vehicle: carboxymethylcellulose (CMC)
[10] = dose: 400.0 mg/kg/injection, schedule: Q01DX001 (ip), vehicle: carboxymethylcellulose (CMC)
[11] = dose: 50.0 mg/kg/injection, schedule: Q01DX001 (ip), vehicle: carboxymethylcellulose (CMC)
[12] = dose: 100.0 mg/kg/injection, schedule: Q01DX001 (ip), vehicle: saline with Tween-80
[13] = dose: 200.0 mg/kg/injection, schedule: Q01DX001 (ip), vehicle: saline with Tween-80

Measured: T/C

COC1c2ccccc2C=CN1c1ccc([N+](=O)[O-])cc1[N+](=O)[O-] (centres undefined)
inactive: [1] 110 % of control | [2] 104 % of control | [3] 108 % of control

NCCSC(O)(C(F)(F)F)C(F)(F)F
inactive: dose: 37.5 mg/kg/injection, schedule: Q04DX003 (ip), vehicle: saline 103 % of control | [4] 113 % of control and 101 % of control | dose: 75.0 mg/kg/injection, schedule: Q04DX003 (ip), vehicle: saline 102 % of control and 103 % of control | dose: 150.0 mg/kg/injection, schedule: Q01DX001 (ip), vehicle: saline 106 % of control and 109 % of control | dose: 150.0 mg/kg/injection, schedule: Q04DX003 (ip), vehicle: saline 104 % of control and 100 % of control

O=C(O)/C=C/C(=O)Nc1ccccc1
inactive: [5] 90 % of control | [1] 93 % of control | [6] 97 % of control | [2] 95 % of control | [7] 100 % of control | [3] 95 % of control

Nc1nc(N)nc(-c2ccncc2)n1
inactive: dose: 50.0 mg/kg/injection, schedule: Q01DX009 (ip), vehicle: saline with Tween-80 119 % of control

COC(OC)c1[nH]c(=S)[nH]c(=O)c1Cc1ccccc1Cl
inactive: dose: 100.0 mg/kg/injection, schedule: Q04DX002 (ip), vehicle: Klucel (hydroxypropylcellulose) (HPC) 97 % of control | dose: 200.0 mg/kg/injection, schedule: Q04DX002 (ip), vehicle: Klucel (hydroxypropylcellulose) (HPC) 97 % of control | dose: 400.0 mg/kg/injection, schedule: Q04DX002 (ip), vehicle: Klucel (hydroxypropylcellulose) (HPC) 105 % of control

Brc1cc(Br)c2[nH]c(-c3ccccc3)cc2c1
inactive: [8] 95 % of control | [9] 90 % of control | [10] 88 % of control

C[CH2][Ge]1([CH2]C)[CH2]C(C)=C(C)[CH2]1
inactive: dose: 100.0 mg/kg/injection, schedule: Q04DX002 (ip), vehicle: saline with Tween-80 95 % of control | dose: 200.0 mg/kg/injection, schedule: Q04DX002 (ip), vehicle: saline with Tween-80 95 % of control

CCOP(=O)(Nc1cccc(Cl)c1)OCC
inactive: [11] 94 % of control | [8] 94 % of control | [9] 105 % of control | [10] 103 % of control

CC(=O)Nc1ccc(OC(=O)Nc2ccc(Cl)c([N+](=O)[O-])c2)cc1
inactive: [5] 97 % of control | [1] 112 % of control | [6] 104 % of control | [2] 97 % of control | [7] 93 % of control | [3] 92 % of control

CC1=CP(=O)(Oc2ccc([N+](=O)[O-])cc2)CC1 (centres undefined)
inactive: [4] 102 % of control

CC(C)=CCNc1ncnc2nc[nH]c12
inactive: dose: 5.0 mg/kg/injection, schedule: Q01DX001 (ip), vehicle: saline 107 % of control | dose: 10.0 mg/kg/injection, schedule: Q01DX001 (ip), vehicle: saline 95 % of control | dose: 10.0 mg/kg/injection, schedule: Q01DX009 (ip), vehicle: saline with Tween-80 104 % of control | dose: 20.0 mg/kg/injection, schedule: Q01DX001 (ip), vehicle: saline 101 % of control | dose: 20.0 mg/kg/injection, schedule: Q01DX009 (ip), vehicle: saline with Tween-80 103 % of control | dose: 20.0 mg/kg/injection, schedule: Q04DX003 (ip), vehicle: saline with Tween-80 100 % of control | dose: 40.0 mg/kg/injection, schedule: Q01DX001 (ip), vehicle: saline 101 % of control | dose: 40.0 mg/kg/injection, schedule: Q01DX009 (ip), vehicle: saline with Tween-80 98 % of control

CC1(O)CCCCCC1
inactive: [11] 107 % of control | [8] 100 % of control | [9] 94 % of control | [10] 89 % of control

COC1=C(C)C(=O)c2c(c(COC(N)=O)c3n2CC2C3N2C)C1=O (centres undefined)
inactive: dose: 1.0 mg/kg/injection, schedule: Q01DX009 (ip), vehicle: carboxymethylcellulose (CMC) 123 % of control | dose: 1.8 mg/kg/injection, schedule: Q01DX009 (ip), vehicle: carboxymethylcellulose (CMC) 105 % of control | dose: 1.9 mg/kg/injection, schedule: Q01DX001 (ip), vehicle: other 116 % of control and 122 % of control | dose: 2.9 mg/kg/injection, schedule: Q01DX001 (ip), vehicle: other 119 % of control | dose: 4.5 mg/kg/injection, schedule: Q01DX001 (ip), vehicle: other 122 % of control | dose: 6.7 mg/kg/injection, schedule: Q01DX001 (ip), vehicle: other 123 % of control

O=C(O)c1ccc(Cn2ccc(=O)[nH]c2=O)cc1
inactive: [12] 95 % of control | [13] 107 % of control | dose: 400.0 mg/kg/injection, schedule: Q01DX001 (ip), vehicle: saline with Tween-80 101 % of control

COC(=O)CCC(C)=O
inactive: dose: 100.0 mg/kg/injection, schedule: Q01DX001 (ip), vehicle: saline 102 % of control | dose: 200.0 mg/kg/injection, schedule: Q01DX001 (ip), vehicle: saline 102 % of control | dose: 400.0 mg/kg/injection, schedule: Q01DX001 (ip), vehicle: saline 100 % of control

OC(Cc1ccc(-c2ccccc2)cc1)c1ccccc1 (centres undefined)
inactive: dose: 50.0 mg/kg/injection, schedule: Q01DX001 (ip), vehicle: saline with Tween-80 93 % of control | [12] 91 % of control | [13] 91 % of control

CCN(CC)CCSC(=S)N1c2ccccc2Sc2ccccc21
inactive: dose: 17.5 mg/kg/injection, schedule: Q01DX009 (ip), vehicle: saline 90 % of control | dose: 17.5 mg/kg/injection, schedule: Q04DX003 (ip), vehicle: Klucel (hydroxypropylcellulose) (HPC) 102 % of control | dose: 35.0 mg/kg/injection, schedule: Q01DX009 (ip), vehicle: saline 96 % of control | dose: 35.0 mg/kg/injection, schedule: Q04DX003 (ip), vehicle: Klucel (hydroxypropylcellulose) (HPC) 93 % of control | dose: 70.0 mg/kg/injection, schedule: Q01DX009 (ip), vehicle: saline 87 % of control | dose: 70.0 mg/kg/injection, schedule: Q04DX003 (ip), vehicle: Klucel (hydroxypropylcellulose) (HPC) 96 % of control | dose: 140.0 mg/kg/injection, schedule: Q01DX009 (ip), vehicle: saline 91 % of control | dose: 140.0 mg/kg/injection, schedule: Q04DX003 (ip), vehicle: Klucel (hydroxypropylcellulose) (HPC) 98 % of control | dose: 280.0 mg/kg/injection, schedule: Q04DX003 (ip), vehicle: Klucel (hydroxypropylcellulose) (HPC) 95 % of control

CCCCCCOC(=O)C1OC1(C)c1ccccc1 (centres undefined)
inactive: dose: 100.0 mg/kg/injection, schedule: Q04DX002 (ip), vehicle: saline 108 % of control | dose: 200.0 mg/kg/injection, schedule: Q04DX002 (ip), vehicle: saline 112 % of control | dose: 400.0 mg/kg/injection, schedule: Q04DX002 (ip), vehicle: saline 93 % of control

CCOC(=O)CN=NNc1ccc(C(=O)OCC)cc1
inactive: dose: 25.0 mg/kg/injection, schedule: Q01DX009 (ip), vehicle: other 95 % of control | dose: 50.0 mg/kg/injection, schedule: Q01DX009 (ip), vehicle: other 96 % of control | dose: 50.0 mg/kg/injection, schedule: Q04DX003 (ip), vehicle: other 105 % of control | dose: 100.0 mg/kg/injection, schedule: Q01DX001 (ip), vehicle: other 98 % of control | dose: 100.0 mg/kg/injection, schedule: Q04DX003 (ip), vehicle: other 104 % of control | dose: 200.0 mg/kg/injection, schedule: Q01DX001 (ip), vehicle: other 95 % of control
